Where a name gives a salt, the structure may show the parent alone. Read-outs that look alike come from different tables or passages of the source.
Experiments:
pERK in MKN1 cells = experiment: cells; format: cell-based; details: Homo sapiens
[1] = target: recombinant human SOS1 polypeptide (amino acids 560-1049) (Homo sapiens (Human), UniProt Q07889); experiment: biochemical; format: binding; details: read-out: Ki, Inhibition of Labeled Tracer Binding to SOS1
[2] = MKN-1, pERK inhibition, In-Cell Western, MKN1 or H358 cells (Table 24 does not say which), 0.5-1 hour incubation, read-out: IC50
[3] = HTRF displacement, Cy5 labelled tracer, Morrison equation for competitive binding

Sequence of recombinant human SOS1 polypeptide (amino acids 560-1049) (Q07889 560-1049): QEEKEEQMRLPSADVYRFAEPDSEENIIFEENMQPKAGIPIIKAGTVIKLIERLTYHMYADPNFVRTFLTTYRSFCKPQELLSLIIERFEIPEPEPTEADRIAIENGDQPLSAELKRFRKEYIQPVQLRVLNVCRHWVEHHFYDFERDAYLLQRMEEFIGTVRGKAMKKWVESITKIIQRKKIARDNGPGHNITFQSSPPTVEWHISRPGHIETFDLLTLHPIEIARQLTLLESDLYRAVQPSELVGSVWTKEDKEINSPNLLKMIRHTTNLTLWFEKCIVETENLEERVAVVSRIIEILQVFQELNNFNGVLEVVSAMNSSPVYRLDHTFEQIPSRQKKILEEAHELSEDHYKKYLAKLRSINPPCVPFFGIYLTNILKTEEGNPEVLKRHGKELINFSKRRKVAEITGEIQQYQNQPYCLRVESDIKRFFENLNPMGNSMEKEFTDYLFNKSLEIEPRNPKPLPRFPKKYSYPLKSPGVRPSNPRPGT

Row | Compound | IC50 (pERK in MKN1 cells; [2]) [nM] | Ki [1, 3] [nM] | IC50 (pERK in MKN1 cells; MKN-1) [nM] | Ki [1] [nM]
1 | Cc1c([C@@H](C)Nc2nncc3ccc(N4CCC5C4CCCN5C)cc23)cccc1C(F)(F)F (stereo partly drawn) [Example 1-38, N-((R)-1-(2-methyl-3-(trifluoromethyl)phenyl)ethyl)-7-(4-methyloctahydro-1H-pyrrolo[3,2-b]pyridin-1-yl)phthalazin-1-amine] | 136 | 0.5 |  | 
2 | Cc1cn2c(n1)CN(c1ccc3cnnc(N[C@H](C)c4cccc(C(F)(F)F)c4C)c3c1)CC2 [Example 1-40, (R)-N-(1-(2-methyl-3-(trifluoromethyl)phenyl)ethyl)-7-(2-methyl-5,6-dihydroimidazo[1,2-a]pyrazin-7(8H)-yl)phthalazin-1-amine] | 171 | 0.27 |  | 
3 | Cc1c([C@@H](C)Nc2nncc3ccc(N4CCN(C)C(CF)C4)cc23)cccc1C(F)(F)F (stereo partly drawn) [Example 1-43, 7-(3-(fluoromethyl)-4-methylpiperazin-1-yl)-N-((R)-1-(2-methyl-3-(trifluoromethyl)phenyl)ethyl)phthalazin-1-amine] | 216 | 1.36 |  | 
4 | Cc1cn2c(n1)C(C)N(c1ccc3cnnc(N[C@H](C)c4cccc(C(F)(F)F)c4C)c3c1)CC2 (stereo partly drawn) [Example 1-44, 7-(2,8-dimethyl-5,6-dihydroimidazo[1,2-a]pyrazin-7(8H)-yl)-N-((R)-1-(2-methyl-3-(trifluoromethyl)phenyl)ethyl)phthalazin-1-amine] | 235 | 0.42 |  | 
5 | Cc1c([C@@H](C)Nc2nncc3ccc(N4CCn5cc(C(F)(F)F)nc5C4C)cc23)cccc1C(F)(F)F (stereo partly drawn) [Example 1-47, 7-(8-methyl-2-(trifluoromethyl)-5,6-dihydroimidazo[1,2-a]pyrazin-7(8H)-yl)-N-((R)-1-(2-methyl-3-(trifluoromethyl)phenyl)ethyl)phthalazin-1-amine] | 349 | 2.08 |  | 
6 | Cc1c([C@@H](C)Nc2nncc3ccc(N4CCn5cncc5C4)cc23)cccc1C(F)(F)F [Example 1-48, (R)-7-(5,6-dihydroimidazo[1,5-a]pyrazin-7(8H)-yl)-N-(1-(2-methyl-3-(trifluoromethyl)phenyl)ethyl)phthalazin-1-amine] | 364 | 0.56 |  | 
7 | Cc1c([C@@H](C)Nc2nncc3ccc(OC4CCN(C)C4(C)C)cc23)cccc1C(F)(F)F (stereo partly drawn) [Example 2-5, N-((R)-1-(2-methyl-3-(trifluoromethyl)phenyl)ethyl)-7-((1,2,2-trimethylpyrrolidin-3-yl)oxy)phthalazin-1-amine] | 82 | 1.78 |  | 
8 | Cc1c([C@@H](C)Nc2nncc3ccc(OC4CCN(C)CC4)cc23)cccc1C(F)(F)F [Example 2-6, (R)-N-(1-(2-methyl-3-(trifluoromethyl)phenyl)ethyl)-7-((1-methylpiperidin-4-yl)oxy)phthalazin-1-amine] | 83 | 2.1 |  | 
9 | Cc1c([C@@H](C)Nc2nncc3ccc(O[C@H]4C[C@H](N(C)C)C4)cc23)cccc1C(F)(F)F [Example 2-8, 7-((trans)-3-(dimethylamino)cyclobutoxy)-N-((R)-1-(2-methyl-3-(trifluoromethyl)phenyl)ethyl)phthalazin-1-amine] | 148 | 2.99 |  | 
10 | Cc1c([C@@H](C)Nc2nncc3ccc(O[C@H]4CC[C@H](N(C)C)C4)cc23)cccc1C(F)(F)F [Example 2-11, 7-(((trans)-3-(dimethylamino)cyclopentyl)oxy)-N-((R)-1-(2-methyl-3-(trifluoromethyl)phenyl)ethyl)phthalazin-1-amine] | 243 | 2.83 |  | 
11 | Cc1c([C@@H](C)Nc2nncc3ccc(OC4CCN5CCCC5C4)cc23)cccc1C(F)(F)F (stereo partly drawn) [Example 2-12, N-((R)-1-(2-methyl-3-(trifluoromethyl)phenyl)ethyl)-7-((octahydroindolizin-7-yl)oxy)phthalazin-1-amine] | 304 | 5.75 |  | 
12 | COc1cc2c(N[C@H](C)c3ccc(-c4ccccc4CN(C)C)s3)nnc(C(F)(F)F)c2cc1OC [Example 5-4, (R)—N-(1-(5-(2-((dimethylamino)methyl)phenyl)thiophen-2-yl)ethyl)-6,7-dimethoxy-4-(trifluoromethyl)phthalazin-1-amine] | 1620 | 47.9 |  | 
13 | Cc1c([C@@H](C)Nc2nnc(C)c3ccc(N4CCN(C)CC4)cc23)cccc1C(F)(F)F [Example 6-1, (R)-4-methyl-N-(1-(2-methyl-3-(trifluoromethyl)phenyl)ethyl)-7-(4-methylpiperazin-1-yl)phthalazin-1-amine] | 79 | 0.11 |  | 
14 | CNCc1ccccc1-c1ccc([C@@H](C)Nc2nnc(C)c3cnc(N4CCOCC4)cc23)s1 [Example 6-2, (R)-4-methyl-N-(1-(5-(2-((methylamino)methyl)phenyl)thiophen-2-yl)ethyl)-7-morpholinopyrido[3,4-d]pyridazin-1-amine] | 100 | 1.35 |  | 
15 | CNCc1c(F)cccc1-c1ccc([C@@H](C)Nc2nnc(C)c3cnc(N4CCOCC4)cc23)s1 [Example 6-13, (R)-N-(1-(5-(3-fluoro-2-((methylamino)methyl)phenyl)thiophen-2-yl)ethyl)-4-methyl-7-morpholinopyrido[3,4-d]pyridazin-1-amine] | 20 | 0.29 |  | 
16 | Cc1nnc(N[C@H](C)c2cc(F)cc(C(F)(F)F)c2)c2cc(N3CCOCC3)ncc12 [Example 6-14, (R)-N-(1-(3-fluoro-5-(trifluoromethyl)phenyl)ethyl)-4-methyl-7-morpholinopyrido[3,4-d]pyridazin-1-amine] | 320 | 5.51 |  | 
17 | Cc1nnc(N[C@H](C)c2cccc(C#N)c2)c2cc(N3CCOCC3)ccc12 [Example 6-15, (R)-3-(1-((4-methyl-7-morpholinophthalazin-1-yl)amino)ethyl)benzonitrile] | 172 | 12.6 |  | 
18 | Cc1nnc(N[C@H](C)c2cc(F)cc(C#N)c2)c2cc(N3CCOCC3)ncc12 [Example 6-17, (R)-3-fluoro-5-(1-((4-methyl-7-morpholinopyrido[3,4-d]pyridazin-1-yl)amino)ethyl)benzonitrile] | 412 | 56.5 |  | 
19 | Cc1c(Cl)cccc1[C@@H](C)Nc1nnc(C)c2cnc(N3CCOCC3)cc12 [Example 6-18, (R)-N-(1-(3-chloro-2-methylphenyl)ethyl)-4-methyl-7-morpholinopyrido[3,4-d]pyridazin-1-amine] | 3700 | 317 |  | 
20 | Cc1c([C@@H](C)Nc2nnc(C)c3ccc(OC4CCNCC4)cc23)cccc1C(F)(F)F [Example 7-2, (R)-4-methyl-N-(1-(2-methyl-3-(trifluoromethyl)phenyl)ethyl)-7-(piperidin-4-yloxy)phthalazin-1-amine] | 73 | 0.33 |  | 
21 | Cc1c([C@@H](C)Nc2nnc(C)c3ccc(O[C@H]4CCN(C)C4)cc23)cccc1C(F)(F)F [Example 7-5, 4-methyl-N-((R)-1-(2-methyl-3-(trifluoromethyl)phenyl)ethyl)-7-(((S)-1-methylpyrrolidin-3-yl)oxy)phthalazin-1-amine] | 110 | 0.82 |  | 
22 | Cc1c([C@@H](C)Nc2nnc(C)c3ccc(OC[C@@H]4CCCN4)cc23)cccc1C(F)(F)F [Example 7-6, 4-methyl-N-((R)-1-(2-methyl-3-(trifluoromethyl)phenyl)ethyl)-7-(((S)-pyrrolidin-2-yl)methoxy)phthalazin-1-amine] | 110 | 1.41 |  | 
23 | Cc1c([C@@H](C)Nc2nnc(C)c3ccc(OC[C@H]4CCCN4)cc23)cccc1C(F)(F)F [Example 7-7, 4-methyl-N-((R)-1-(2-methyl-3-(trifluoromethyl)phenyl)ethyl)-7-(((R)-pyrrolidin-2-yl)methoxy)phthalazin-1-amine hydrochloride salt] |  |  | 115 | 0.92
24 | CNCc1ccccc1-c1ccc([C@@H](C)Nc2nnc(C)c3ccc(C)cc23)s1 [Example 8-1, (R)-4,7-di methyl-N-(1-(5-(2-((methylamino)methyl)phenyl)thiophen-2-yl)ethyl)phthalazin-1-amine] | 164 | 1.38 |  | 
25 | CNCc1ccccc1-c1ccc([C@@H](C)Nc2nnc(C(F)(F)F)c3ccc(N4CCOCC4)cc23)s1 [Example 10-2, (R)—N-(1-(5-(2-((methylamino)methyl)phenyl)thiophen-2-yl)ethyl)-7-morpholino-4-(trifluoromethyl)phthalazin-1-amine] | 1370 | 14.9 |  | 
26 | Cc1c([C@@H](C)Nc2nnc(C)c3ccc(C4CCNC(=O)C4)cc23)cccc1C(F)(F)F (stereo partly drawn) [Example 10-3, 4-(1-methyl-4-(((R)-1-(2-methyl-3-(trifluoromethyl)phenyl)ethyl)amino)phthalazin-6-yl)piperidin-2-one] | 85 | 0.71 |  | 
27 | Cc1c([C@@H](C)Nc2nnc(C)c3ccc(N4CCNCC(F)(F)C4)cc23)cccc1C(F)(F)F [Example 10-5, (R)-7-(6,6-difluoro-1,4-diazepan-1-yl)-4-methyl-N-(1-(2-methyl-3-(trifluoromethyl)phenyl)ethyl)phthalazin-1-amine] | 108 | < 0.01 |  | 
28 | Cc1c([C@@H](C)Nc2nnc(C)c3ccc(N4CCN5C(=O)CC[C@@H]5C4)cc23)cccc1C(F)(F)F [Example 10-12, (R)-2-(1-methyl-4-(((R)-1-(2-methyl-3-(trifluoromethyl)phenyl)ethyl)amino)phthalazin-6-yl)hexahydropyrrolo[1,2-a]pyrazin-6(2H)-one] | 29 | 0.4 |  | 
29 | Cc1c([C@@H](C)Nc2nnc(C)c3ccc(N4CCN5C(=O)CC[C@H]5C4)cc23)cccc1C(F)(F)F [Example 10-13, (S)-2-(1-methyl-4-(((R)-1-(2-methyl-3-(trifluoromethyl)phenyl)ethyl)amino)phthalazin-6-yl)hexahydropyrrolo[1,2-a]pyrazin-6(2H)-one] | 39 | 0.49 |  | 

— patent US11702418B2, “SOS1 inhibitors” (priority 2019, dated 2023)
